One molecule from patent US20230064990A1, “DOSING REGIMENS AND METHODS FOR TREATING CANCER” (Panbela Therapeutics, Inc., priority 2020, published 2023) can be followed below.

In series [1] the test system is six human PDA cell lines. The experiment in a line: Cell proliferation in six human PDA cell lines. The class given is cell-based. The method, then: AsPC-1, BxPC-3, Capan-1, HPAF-II, MIA PaCa-2 and PANC-1 cells were seeded in 96-well plates and allowed to adhere overnight. After 24 h fresh media was added containing 0.5-10 μM concentrations of (S,S)-(HO)2DEHSPM alone or +0.5 μM GEM, +5 nM NAB, or + both, or containing GEM, NAB or GEM+NAB alone. Cell proliferation was measured in triplicate 24, 48, 72 and 96 h post-treatment and IC50 values were calculated.

The nature of series [2]: Phase 1 monotherapy dose escalation study, pharmacokinetics. The class given is in vivo, human. To be noted: 0.05-0.8 mg/kg subcutaneous; Days 1 and 18 of cycle 1.
A short description of series [3]: Phase 1a/1b study in combination with G and A, pharmacokinetics. The class given is in vivo, human. To be noted: for Cmax / Tmax: human, plasma, subcutaneous. As for the experimental part: G (1000 mg/m^2) and A (125 mg/m^2) were administered intravenously on Days 1, 8, and 15 of each cycle. […] PK was evaluated on day 1 of cycle 1. Efficacy was assessed by CA19-9 levels, objective response was assessed by RECIST criteria, progression-free survival (PFS) and overall survival (OS).
This is a multicenter, open label, Phase 1a/1b study to evaluate to evaluate the safety, tolerability, pharmacokinetics and efficacy of (S,S)-(HO)2DEHSPM when administered in combination with G and A as first-line therapy in pancreatic cancer patients previously untreated for metastatic disease. The objective was to determine a recommended Phase 2 dose. Using a modified 3+3 dose escalation scheme, cohorts of subjects were dosed with subcutaneous injections of (S,S)-(HO)2DEHSPM at 0.2, 0.4 or 0.6 mg/kg days 1-5 of each 28-day cycle. Gemcitabine (1000 mg/m^2) and A (125 mg/m^2) were administered intravenously on Days 1, 8, and 15 of each cycle. […] PK was evaluated on day 1 of cycle 1. Efficacy was assessed by objective response rate (ORR) using RECIST criteria and by changes in CA19-9 levels. Subjects were treated until disease progression or the development of dose-limiting toxicity. Based upon initial safety findings and preliminary signals of efficacy, the protocol was amended to evaluate progression-free survival (PFS) and overall survival (OS) and expand the study to up to 36 subjects at the recommended Phase 2 dose. To date, 20 subjects were enrolled in cohorts 1-3 and evaluated for dose limiting toxicity and early signals of efficacy.

Series [4] in a line: Phase 1a/1b Cohort 4, shortened daily/periodic dosing regimen, liver toxicity. To be noted: Cohort 4 regimen vs reference dosing regimen, particularly Cohort 3. It is filed as in vivo, human. The method, then: As part of the same study described in Example 4, one cohort of patients (Cohort 4) was administered a combination shortened daily dosing regimen/periodic dosing regimen and liver toxicities were compared to the reference dosing regimen described in Example 4.
Cohort 4 was administered 0.4 mg/kg/day of (S,S)-(HO)2DEHSPM for 5 consecutive days (for a total of 5 doses/cycle) beginning on day 1 (i.e. days 1-5) of each of Cycles 1 and 2. Thereafter Cohort 4 was administered 0.4 mg/kg/day of (S,S)-(HO)2DEHSPM on Days 1, 8 and 15 beginning on day 1 of Cycle 3 (for a total of 3 doses per cycle) and continuing for each cycle thereafter. Cohort 4 patients were treated for 3 to 6 or more total cycles depending on the individual patient's tolerance of treatment.

The nature of series [5]: Repeat doses in healthy beagles. The class given is in vivo. As for the experimental part: This effect on the exocrine pancreas in dogs (causing nearly complete ablation of the exocrine pancreas) was an unexpected finding in development of this polyamine analogue as a therapeutic agent. It occurred in a dose-dependent manner several weeks after drug dosing was discontinued in dogs. Beginning 5 to 6 weeks post last dose, the animals at the high-dose levels rapidly lost weight and their serum trypsin-like immunoreactivity decreased to <2.5 μg/L, which is diagnostic for exocrine pancreatic insufficiency in this species. In addition, fat absorption tests became abnormal and hepatic transaminase values increased. The pancreata of euthanized animals were grossly atrophied with diffuse moderate to severe pancreatic atrophy, especially of the acini. However, the islets appeared both histologically intact and functional based on serum glucose levels and oral glucose tolerance tests.

Series [6] in a line: 4-week repeated dose toxicity study in rats. It is filed as in vivo. As for the experimental part:
For the first-in-human (Phase 1a/1b) study, a starting dose of 0.05 mg/kg (1.8 mg/m^2) of (S,S)-(HO)2DEHSPM.4HCl was chosen as 1/10 the severely toxic dose (STD10) observed in a 4-week repeated dose toxicity study in rats (3 mg/kg/day; […]). This dose was chosen in accordance with the ICH S9 Guideline for the Nonclinical Development for Anti-Cancer Pharmaceuticals. For the Phase 1a/1b dosing schedule patients were administered up to 0.4 mg/kg/day Monday through Friday for 3 weeks for a total cumulative dose (TCD) of 6 mg/kg. In this animal experiment, one cycle consisted of 3 weeks of dosing and 5 weeks of rest for a total cycle length of 8 weeks.

The nature of series [7]: Phase 1 monotherapy dose escalation study, safety and tolerability.
Description: Safety and tolerability were evaluated by clinical and laboratory assessments. PK was evaluated on Days 1 and 18 of cycle 1. Efficacy was assessed by RECIST criteria and overall survival.

Each structure is given as a SMILES string. Read-outs that look alike come from different tables or passages of the source. Where only a bound is given, the exact number is not on record here.

Consider `CCNCCC(O)CNCCCCNCC(O)CCNCC` [(S,S)-(HO)2DEHSPM, (6S,15S)-3,8,13,18-teraazaicosane-6,15-diol], for which, in series [1] (0.5-10 μM, maximal inhibition most often with 10 μM), the anti-proliferative effect entry is “anti-proliferative effect in all cell lines”. Moreover, in series [1] (ASPC-1, BxPC-3 and Capan-1 cells, p<0.005), the “inhibition by (S,S)-(HO)2DEHSPM alone compared with GEM+NAB” value is recorded as “greater inhibition than GEM+NAB”. Besides, in series [2], the “Plasma Cmax and AUC0-t versus dose” value is recorded as “increased linearly with dose”. Also, the PK parameters entry in series [3] (cohort 1 (0.2 mg/kg), day 1 of cycle 1) is “below the limits of detection at most time points”. Moreover, the Cmax in series [3] (sc, Cohort 1 (0.2 mg/kg) N=4, day 1 of cycle 1, read-out: Cmax Mean) is 26.6 ng/mL; in series [3] (sc, Cohort 2 (0.4 mg/kg) N=7, day 1 of cycle 1, read-out: Cmax Mean), 115 ng/mL; in series [3] (sc, Cohort 3 (0.6 mg/kg) N=5, day 1 of cycle 1, read-out: Cmax Mean), 147 ng/mL; in series [3] (Cohort 1 (0.2 mg/kg) N=4, read-out: Cmax Range), 13.2 to 41.6 ng/mL; in series [3] (Cohort 2 (0.4 mg/kg) N=7, read-out: Cmax Range) it was 77.1 to 167 ng/mL; in series [3] (Cohort 3 (0.6 mg/kg) N=5, read-out: Cmax Range) it was 91.9 to 195 ng/mL. Also, the Tmax in series [3] (Cohort 1 (0.2 mg/kg) N=4), in series [3] (Cohort 2 (0.4 mg/kg) N=7) and in series [3] (Cohort 3 (0.6 mg/kg) N=5) was 30 min in each case. Moreover, the “severe liver toxicities compared to cohorts of Example 4” value in series [4] is recorded as “unexpectedly reduced or eliminated”. Moreover, the “effect on exocrine pancreas” value in series [5] (cumulative exposure to repeat doses) was “exocrine pancreatic atrophy with exocrine pancreatic insufficiency without an inflammatory response and with preservation of islet cell function”. This molecule gave a serum trypsin-like immunoreactivity in series [5] (high-dose levels, beginning 5 to 6 weeks post last dose) below 2.5 µg/L. The “severely toxic dose (STD10)” value in series [6] amounted to 3 mg/kg/day. Besides, in series [7] (any dose), the “drug-related bone marrow suppression or peripheral neuropathy” value is given as “No drug-related bone marrow suppression or peripheral neuropathy was seen at any dose”. In addition, the “focal pancreatitis at the site of the tumor” value in series [7] (cohort 4 (0.4 mg/kg), at 2.3 months) is reported as “one patient in cohort 4 developed focal pancreatitis”. For the same molecule, the DLTs entry in series [7] (cohort 5 (0.8 mg/kg), N=10) was “Three patients in cohort 5 developed serious adverse events considered dose limiting toxicities”; in series [7] (cohorts 1-4 (0.05-0.4 mg/kg)), “No DLTs occurred”. In addition, the “drug-related serious adverse events (SAEs) or dose limiting toxicities (DLTs)” value in series [7] (up to 0.4 mg/kg/day Monday through Friday×3 weeks (TCD~6 mg/kg per 8 week cycle)) was “No drug-related serious adverse events (SAEs) or dose limiting toxicities (DLTs) were observed”.

As a reminder, the Cmax is the peak of the concentration-time curve. What is called Tmax is the time from dosing to the highest level.
